Measurements reported in patent US12042539B2, “Compositions and kits for Omeprazole suspension” (Azurity Pharmaceuticals, Inc., priority 2019, dated 2024).
≈ marks a conversion by molar mass, not a printed value. Read-outs that look alike come from different tables or passages of the source.

What was measured:
[1] = Related substance (omeprazole impurities) at stability time points; type: physicochemical; conditions: Omeprazole API
Description: Monitoring the trend of increase in chemical impurities/related substances is important with respect to stability of a formulation. Related substance data developed during stability studies of a formulation play a crucial role with respect to determining a useable shelf life for a formulation.
Specification: • a. […] 5-Methoxy-1H-Benzimidazol-2-thiol: NMT 0.50% • c. Omeprazole sulphone N-Oxide: NMT 0.50% • d. Omeprazole N-Oxide: NMT 0.50% • e. Omeprazole Sulphone: NMT 0.50% • f Omeprazole 4-Chloro analog (IMP-H): NMT 0.50% • g. Sulphide (Ufiprazole): NMT 0.50% • h. Desmethoxy Omeprazole: NMT 0.50% • i. Any other individual impurity: NMT 0.20% • j. Total impurities: NMT 2.0%

[2] = Phase solubility of omeprazole at different concentrations of poloxamer 188; type: physicochemical; conditions: for solubility: thermodynamic from solid, read-out: Soluble fraction
[3] = PXRD of reconstituted suspensions (polymorphic form of omeprazole API); type: physicochemical; conditions: 3M and 6M Day 30, 25° C./60% RH and 2-8° C.
Method: To evaluate the polymorphic characteristic of omeprazole API during reconstitution stability studies, the reconstituted suspensions were analyzed by X-ray diffraction (XRD) at 3M and 6M time points at 25° C./60% RH and 2-8° C. conditions.

[4] = cited from earlier work
[5] = cited from earlier work; remark: listed apart in the source
P-glycoprotein = P-glycoprotein (Homo sapiens, UniProt P08183); conditions: cited from earlier work
[6] = increase in poloxamer concentration beyond 10 mg/mL; cited from earlier work

Sequence of P-glycoprotein (P08183 whole entry): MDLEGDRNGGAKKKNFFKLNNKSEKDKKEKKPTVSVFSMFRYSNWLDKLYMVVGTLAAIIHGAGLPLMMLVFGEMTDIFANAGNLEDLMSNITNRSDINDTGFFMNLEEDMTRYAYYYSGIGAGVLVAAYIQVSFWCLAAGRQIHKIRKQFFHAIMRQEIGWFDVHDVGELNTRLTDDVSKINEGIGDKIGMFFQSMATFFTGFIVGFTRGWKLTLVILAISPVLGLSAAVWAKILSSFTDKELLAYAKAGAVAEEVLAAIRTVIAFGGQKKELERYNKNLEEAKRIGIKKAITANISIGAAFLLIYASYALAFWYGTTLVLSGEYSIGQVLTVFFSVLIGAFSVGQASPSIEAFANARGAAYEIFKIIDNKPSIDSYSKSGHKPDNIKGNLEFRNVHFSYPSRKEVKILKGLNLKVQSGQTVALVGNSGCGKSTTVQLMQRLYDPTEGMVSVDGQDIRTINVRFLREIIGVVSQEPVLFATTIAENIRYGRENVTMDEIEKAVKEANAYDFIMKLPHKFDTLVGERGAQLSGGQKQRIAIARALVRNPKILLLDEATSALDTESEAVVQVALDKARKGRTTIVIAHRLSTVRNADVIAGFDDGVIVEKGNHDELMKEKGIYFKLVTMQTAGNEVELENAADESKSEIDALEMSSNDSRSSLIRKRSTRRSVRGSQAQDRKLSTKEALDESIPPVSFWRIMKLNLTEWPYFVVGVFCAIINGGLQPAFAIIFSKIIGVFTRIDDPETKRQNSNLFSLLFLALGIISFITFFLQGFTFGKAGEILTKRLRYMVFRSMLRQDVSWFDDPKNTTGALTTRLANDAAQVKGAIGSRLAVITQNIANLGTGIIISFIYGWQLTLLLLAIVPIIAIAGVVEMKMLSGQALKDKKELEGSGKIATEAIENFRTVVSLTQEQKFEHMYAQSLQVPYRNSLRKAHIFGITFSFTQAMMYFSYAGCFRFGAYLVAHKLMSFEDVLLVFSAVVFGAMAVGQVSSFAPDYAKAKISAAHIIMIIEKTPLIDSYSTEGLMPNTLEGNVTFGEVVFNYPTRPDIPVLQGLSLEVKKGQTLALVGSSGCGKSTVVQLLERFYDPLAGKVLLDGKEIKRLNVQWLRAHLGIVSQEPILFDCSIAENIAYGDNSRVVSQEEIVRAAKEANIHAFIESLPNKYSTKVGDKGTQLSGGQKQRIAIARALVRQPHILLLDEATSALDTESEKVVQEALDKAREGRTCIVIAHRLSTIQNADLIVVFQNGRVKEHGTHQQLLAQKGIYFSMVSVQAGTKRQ

COc1ccc2[nH]c([S+]([O-])Cc3ncc(C)c(OC)c3C)nc2c1 (centres unmarked) [Omeprazole]
Related Substance: Omeprazole F&G [1]: 0.031%
Related Substance: Omeprazole sulphone N-Oxide [1]: Not Detected
Related Substance: Total impurities [1]: 0.05%
Related Substance: 5-Methoxy Benzamidazole 2 thiol ([1]; LOQ (0.01%)): Less than LOQ
Related Substance: Desmethoxy Omeprazole ([1]; LOQ (0.01%)): Less than LOQ
Related Substance: Omeprazole 4-Chloro analog (IMP-H) ([1]; LOQ (0.01%)): Less than LOQ
Related Substance: Omeprazole N-Oxide ([1]; LOQ (0.01%)): Less than LOQ
Related Substance: Omeprazole Sulphide ([1]; LOQ (0.01%)): Less than LOQ
Related Substance: Omeprazole Sulphone (IMP-A) ([1]; LOQ (0.01%)): Less than LOQ
Soluble fraction (%) ([2]; 0 % w/v Poloxamer Content): 10.9%
solubility ([2]; 0% w/v poloxamer 188 (base solvent not stated), 0 % w/v Poloxamer Content): 218 µg/mL (≈ 631 µM)
Soluble fraction (%) ([2]; 0.5 % w/v Poloxamer Content): 15.6%
Soluble fraction (%) ([2]; 1 % w/v Poloxamer Content): 17.1%
Soluble fraction (%) ([2]; 2 % w/v Poloxamer Content): 47.8%
Soluble fraction (%) ([2]; 4 % w/v Poloxamer Content): 47.3%
Omeprazole solubility ([2]; at higher poloxamer 188 content (above 1% w/v)): increased significantly
solubility ([2]; poloxamer 188 at 2% w/v (base solvent not stated), aqueous with cosolvent or surfactant or cyclodextrin, 2 % w/v Poloxamer Content): 957 µg/mL (≈ 2770 µM)
solubility ([2]; poloxamer 188 at 4% w/v (base solvent not stated), aqueous with cosolvent or surfactant or cyclodextrin, 4 % w/v Poloxamer Content): 946 µg/mL (≈ 2740 µM)
solubility ([2]; poloxamer 188 solution (0.5% w/v), aqueous with cosolvent or surfactant or cyclodextrin, 0.5 % w/v Poloxamer Content): 313 µg/mL (≈ 906 µM)
solubility ([2]; poloxamer 188 solution (1% w/v), aqueous with cosolvent or surfactant or cyclodextrin, 1 % w/v Poloxamer Content): 342 µg/mL (≈ 990 µM)
Impact of poloxamer 188 content on omeprazole solubility ([2]; up to 1% w/v poloxamer 188): did not show any significant impact
Polymorphic form conversion (PXRD) [3]: no polymorphic form conversion
half-life ([4]; in vivo): 30 to 60 min
Peak Plasma concentration, time to achieve ([4]; marketed formulations of omeprazole): very rapidly
Log P [5]: 2.43
solubility ([5]; in water): Very slightly soluble in water
P-gp inhibition effects (P-glycoprotein): does not have P-gp inhibition effects
P-gp substrate (P-glycoprotein): moderate P-gp substrate

CC(C)(C)NCC(O)COc1cccc2c1CC(O)C(O)C2 (centres unmarked) [nadolol]
Effect of poloxamer on permeability [6]: didn't show a significant effect
